Measurements taken from article PMC3561363, “A Novel Retro-Inverso Peptide Inhibitor Reduces Amyloid Deposition, Oxidation and Inflammation and Stimulates Neurogenesis in the APPswe/PS1ΔE9 Mouse Model of Alzheimer’s Disease” (PLoS ONE, 2013).
Where a SMILES comes first, the peptide text is derived from it.

Assays:
Aβ42 [1] = assay: Immunoassay for Aβ oligomers (in vitro), 6E10/biotinylated 6E10 sandwich; type: biochemical; conditions: 2∶1 and 1∶1 molar ratios of inhibitor:Aβ42; 12.5 µM Aβ42, PBS pH 7.4, 25°C, even at earliest time points 4 and 8 h
Procedure: This is a more sensitive test than the ThT assay for the detection of early oligomeric forms of Aβ [16]. Microtitre plates (96-well, Maxisorb) were coated with 6E10, diluted 1∶1000 in 10 mM PBS, pH 7.4, for overnight at 4°C. The plates were blocked with assay buffer (Tris-buffered saline (TBS) (pH 7.4), containing 0.05% γ-globulins and 0.005% Tween 20) plus 5% gelatine for 1 h at 37°C. Samples of peptide (12.5 µM Aβ42 and 0, 3.125, 6.25, 12.5, 25 or 62.5 µM RI-OR2–TAT in 10 mM PBS, pH 7.4) were incubated at 25°C for 0, 4, 8, 24 or 48 h, diluted to 1 µM Aβ, and plated in triplicate. The plates were incubated for 1 h at 37°C and then washed with PBS plus 0.05% Tween-20 (PBST). A 1∶1,000 dilution of biotinylated 6E10 was then added to each well, left for 1 h at 37°C, and the plates were washed with PBST. Europium-linked streptavidin was then added to the wells at 1∶500 dilution in StrepE buffer (TBS containing 20 µM DTPA, 0.5% bovine serum albumin, and 0.05% γ-globulins), incubated for 1 h, and washed as before. Enhancer solution was added and the plates were read on a Wallac Victor 2 plate reader, using the time-resolved fluorescence setting for europium.

Aβ42 [2] = assay: Atomic force microscopy (AFM) of Aβ42 aggregation; type: biochemical; conditions: 1∶2 molar ratio RI-OR2-TAT:Aβ42 (12.5 µM:25 µM), 24 h, PBS pH 7.4
Procedure: Aβ42 was incubated at 25 µM in the presence or absence of 12.5 µM RI-OR2-TAT in PBS, pH 7.4, for 24 h. Samples were diluted 1∶10 in PBS and then a 2 µl aliquot was deposited onto the surface of freshly cleaned mica and allowed to dry. Images were obtained in tapping mode using a Multimode™ SPM NanoScope IIIa microscope (Digital Instruments, New York, USA). Silicon cantilever tips measuring 125 µm long, 30 µm wide and with a tip radius <10 nm were used (Budget Sensors, Bulgaria). The resonance frequency was 300 kHz and force constants 40 N/m. All images were first order flattened and edited using WSxM 5.0 Develop 4.3 software, (Nanotech, Madrid, Spain).

[3] = system: SHSY-5Y neuroblastoma cells exposed to pre-aggregated Aβ42; assay: Protection against Aβ42 toxicity, LDH assay; type: cell-based; conditions: 0.5, 1, 5 or 10 µM inhibitor, 5 µM pre-aggregated Aβ42, 24 h, Optimem
Procedure: For cell toxicity assays, SHSY-5Y neuroblastoma cells were maintained in 10% Fetal Calf Serum supplemented Dulbecco’s Modified Eagle Medium (DMEM, Gibco) under standard mammalian cell culture conditions. The cells were transferred to sterile 96-well growth plates at 20,000 cells/well and 4 wells per condition. To test for any toxic effects of RI-OR2–TAT alone on the cells, they were left to adhere for 24 h before the addition of the inhibitor (at 12.5, 25, 50, 100 and 200 µM), in DMEM. To assess the ability of RI-OR2–TAT to protect against Aβ toxicity, the cell growth medium was changed to Optimem (Invitrogen) and Aβ42, pre-aggregated (at 100 µM) for 24 h at 25°C in PBS, was added to the cells at a concentration of 5 µM, together with various amounts (0, 0.1, 0.5, 1, 5 or 10 µM) of RI-OR2–TAT. In each case, after a further 24 h incubation period, the viability of the cells was assessed using a CytoTox 96® Non-Radioactive Cytotoxicity Assay (LDH) Assay (Promega) kit.

Human oligomerised Aβ = assay: Soluble Aβ oligomer levels in brain, sandwich ELISA; type: in vivo, human Aβ in APP/PS1 mice; conditions: 100 nmol/kg i.p. once daily, 21 days, 10 months old APP/PS1 mice, vs saline; p<0.01, 4 animals per group
Procedure: (§1) APPswe/PS1ΔE9 mice with a C57Bl/6 background (APP/PS1 mice) were obtained from the Jackson lab (http://research.jax.org/repository/alzheimers.html). […] To look at the effects of RI-OR2-TAT on mouse brain pathology (experiment 2), 8 female 10-months-old APP/PS1 mice were used. The animals were housed in single cages in a temperature controlled holding room (21.5°C±1) with 12∶12 h light and dark cycle. Food and water was available ad libitum.
For experiment 2, 4 animals were injected intraperitonially (i.p.) with 0.9% NaCl (vehicle control) and the other 4 with RI-OR2-TAT (100 nmol/kg in 0.9% NaCl) once daily, for 21 days. On the 22nd day, the animals were perfused transcardially with ice-cold PBS and 4% paraformaldehyde and then the brains were removed and post-fixed in 4% ice cold paraformaldehyde.
Human oligomerised Aβ was measured using a kit purchased from Invitrogen, according to the manufacturer’s instructions. Briefly, the right hemispheres from the brains of transgenic APP/PS1 mice treated with RI-OR2-TAT, or controls, were pooled separately and homogenized. Quantification of total protein was determined using the Bradford protein assay and was measured on a Nanophotometer (Implen, Germany). The homogenates were centrifuged at 100,000 g at 4°C for 1 h. […] The final Aβ oligomer values were determined following normalization of total protein levels.

[4] = system: 8-oxo-guanine in APP/PS1 mouse cortex; assay: Oxidative stress, 8-oxo-guanine immunostaining, cortex; type: in vivo; conditions: 100 nmol/kg i.p. once daily, 21 days, 10 months old APP/PS1 mice, vs saline, p<0.0001, 4 animals per group
Procedure: as §1
For experiment 2, 4 animals were injected intraperitonially (i.p.) with 0.9% NaCl (vehicle control) and the other 4 with RI-OR2-TAT (100 nmol/kg in 0.9% NaCl) once daily, for 21 days. […]
For experiment 2 (effects on brain pathology), sections were examined for activated microglia (using anti-Iba-1 antibody), oxidative stress (anti-8-oxo-guanine antibody), immature neurons (anti-doublecourtin antibody) or total plaque load (anti-Aβ antibody). […] Oxidative stress was assessed by denaturing DNA in each section using 2N HCl and the sections were then stained for 8-oxo guanine (1∶200 dilution, MAB3560, Millipore). Young immature neurons were detected by immunostaining for doublecortin (1∶200 dilution, sc-66911, Santa Cruz Biotechnology). Total plaque load was quantified by immunostaining for β-amyloid (1∶200 dilution, Invitrogen, 71–5800).
All sections were visualized using an Axio Scope 1 fluorescence microscope (Zeiss, Germany). […]

With CC(=O)N[C@H](CCCNC(=N)N)C(=O)NCC(=O)N[C@H](Cc1ccccc1)C(=O)N[C@H](Cc1ccccc1)C(=O)N[C@@H](C(=O)N[C@H](CC(C)C)C(=O)N[C@H](CCCCN)C(=O)NCC(=O)N[C@H](CCCNC(=N)N)C(=O)N[C@H](CCCNC(=N)N)C(=O)N[C@H](CCCNC(=N)N)C(=O)N[C@H](CCCNC(=N)N)C(=O)N[C@H](CCC(N)=O)C(=O)N[C@H](CCCNC(=N)N)C(=O)N[C@H](CCCNC(=N)N)C(=O)N[C@H](CCCCN)C(=O)N[C@H](CCCCN)C(=O)N[C@H](CCCNC(=N)N)C(=O)NCC(=O)N[C@H](Cc1ccc(O)cc1)C(N)=O)C(C)C [RI-OR2-TAT, Ac-rGffvlkGrrrrqrrkkrGy-NH2] (HELM PEPTIDE1{[ac].[dR].G.[dF].[dF].[dV].[dL].[dK].G.[dR].[dR].[dR].[dR].[dQ].[dR].[dR].[dK].[dK].[dR].G.[dY].[am]}$$$$V2.0) the “development of immunoassay signal (oligomer formation)” value (Aβ42 [1]) was “considerably reduced the development of an immunoassay signal”, the “inhibition of oligomer formation by AFM” value (Aβ42 [2]) was “clear inhibition of oligomer formation” and the “protection against toxic effects of pre-aggregated Aβ42” value [3] was “protected against the toxic effects”. The “reduction of soluble Aß oligomer levels in brain” value (Human oligomerised Aβ) was 25% and the “reduction of 8-oxo-guanine immunostaining (oxidative damage)” value [4] was 25%.
